Common to all, as to type: in vivo, pig
One experiment has as its system Lactobacilli. Kind of experiment: Microbial analysis of ileum and colon digesta, Example 5. The settings on record: ileum; LAM 0-600 ppm. The source says:
(§1) 21 pigs with an initial weight of 17.9±2.2 Kg were assigned to one of the 3 dietary treatments: (T1) control; (T2) basal diet+300 ppm LAM; (T3) basal diet+600 ppm LAM. Experimental feeding continued for 21 days ad libitum. Diets were formulated to have similar digestible energy (DE) (14.4 MJ/Kg) and ileal digestible lysine (12.5 g/Kg). Post-slaughter, digestive tract was removed by dissection and digesta was removed from the ileum. Each digesta sample was serially diluted in maximum recovery diluent (MRD, Oxoid, Basingstoke, UK), and spread plated onto selective agars. Bifidobacteria, Lactobacilli and Enterobacteria species were isolated according to the methods described by Pierce et al. (2005). Digesta samples used to measure VFA concentration were collected from the caecum and the same location in the ileum and colon. VFA analysis was performed using gas liquid chromatography (GLC) according to the method described by Pierce et al., (2005).

For a further experiment, the system named is Enterobacteriaceae. The description is as above.
Source text: as §1

Another experiment relates to Bifidobacteria. The experiment is described as above. To be noted: ileum; LAM 0-600 ppm.
Source text: as §1

Experiment [1] can be described thus: VFA analysis and digesta pH in ileum, caecum and colon, Example 5. To be noted: for total VFAs: increasing LAM.
Source text: as §1

The test system of the next experiment is IFN-γ. Kind of experiment: Cytokine gene expression after ex-vivo LPS tissue challenge of ileum and colon, Example 5. To be noted: ileum, ex-vivo LPS challenge (10 μg/ml, 90 minutes). From the text: (§2) 21 pigs with an initial weight of 17.9±2.2 Kg were assigned to one of the 3 dietary treatments: (T1) control; (T2) basal diet+300 ppm LAM; (T3) basal diet+600 ppm LAM. Experimental feeding continued for 21 days ad libitum. Diets were formulated to have similar digestible energy (DE) (14.4 MJ/Kg) and ileal digestible lysine (12.5 g/Kg).
(§3) Ileal and colonic tissues were sampled from the same location as described for digesta samples. Excised tissues were emptied by dissecting them along the mesentery and rinsing them using sterile phosphate buffered saline (PBS) (Oxoid). Tissue sections 1 cm^3, which had been stripped of the overlying smooth muscle were cut from each tissue. Two sections from each tissue were placed in 1 ml of Dulbecco's Modified Eagle's Medium (DMEM) (Gibco), one in the presence of bacterial lipopolysaccharide (LPS) (Sigma Aldrich) at a concentration of 10 μg/ml. The other tissue sample was used as a control and incubated in sterile DMEM in the absence of LPS. Both challenged and unchallenged tissues were incubated at 37° C. for 90 minutes before being removed, blotted dry and weighed. Approximately 1-2 g of porcine ileum and colon tissues were cut into small pieces and collected in 15 ml of RNAlater® (Applied Biosystems, Foster City, Calif.). RNAlater® was removed before storing the samples at −80° C. until used for RNA extraction.
(§4) Tissue samples for RNA extraction were removed from −86° C. and homogenised. 500 μl of lysis solution/2-ME was added to each sample and these were mechanically disrupted using one 5 mm stainless steel bead per sample. These were then placed in a Tissue Lyser (Qiagen) and lysates were homogenised for 3 mins and transferred to a GenElute Filtration Column (Sigma Aldrich) and RNA was extracted. 1 µg of total RNA was used for cDNA synthesis using oligo(dT)20 primer in a final reaction volume of 20 μl with Superscript™ III First-Strand synthesis system for reverse transcriptase-polymerase chain reaction (RT-PCR) (Invitrogen Life Technologies, Carlsbad, Calif.). At the last step of cDNA synthesis, treatment with E. coli RNase H (Invitrogen Corp.) was performed to digest the remaining RNA/mRNA template, resulting in the production of the single-stranded cDNA template for subsequent qRT-PCR reactions.
(§5) All porcine primers for the cytokine genes interferon gamma (IFN-γ), interleukin-1α (IL-1α), IL-6, IL-8, IL-10, IL-17, tumour necrosis factor (TNF-α), the mucin genes (MUCs 1, 2, 4, 5AC, 12, 13 and 20) and three reference genes, β-actin (ACTB), Glyceraldehyde-3-phosphate dehydrogenase (GAPDH) and Peptidylprolyl isomerase A (PPIA), were designed using Primer Express™ (PE Applied Biosystems, Foster City, Calif.) and synthesised by MWG Biotech (Milton Keynes, UK). These reference genes were previously validated for use in porcine tissue and qPCR was then carried out on the cDNA using the ABI PRISM 7900HT Fast sequence detection system for 96-well plates (Applied Biosystems, Foster City, Calif.). All samples were prepared in duplicate using SYBR Green Fast PCR Master Mix (Applied Biosystems, Foster City, Calif.), cDNA as template and specific primers for the genes selected. For each reaction 5 μl cDNA, 1.2 μl (forward and reverse primer mix, 5 μM), 10 μl Fast SYBR Green PCR Master Mix (PE Applied Biosystems, Foster City, Calif.) was added and made up to a final volume of 20 μl. The two step PCR program was as follows: 95° C. for 10 minutes for 1 cycle followed by 95° C. for 15 seconds and 60° C. for 1 minute for 40 cycles. The raw Ct values for the reference genes were converted to relative quantities using the formula Q=E ^ΔCt where E is the PCR efficiency of the assay and ^ΔCt is the value calculated for the difference between the lowest Ct value for each gene minus the Ct value of the sample in question. The relative quantities of the endogenous controls were then analysed for stability in geNorm (Vandesompele et al., 2002). […]

The subject of a further experiment is IL-17. Described as above. The settings on record: ileum, ex-vivo LPS challenge (10 μg/ml, 90 minutes).
Source text: as §2, §3, §4, §5

The next experiment concerns IL-8. The experiment is described as above.
Source text: as §2, §3, §4, §5

Another experiment concerns IL-10. The description is as above. To be noted: ileum, ex-vivo LPS challenge (10 μg/ml, 90 minutes).
Source text: as §2, §3, §4, §5

In another experiment the test system is IL-1α. The description is as above. The settings on record: ileum, ex-vivo LPS challenge (10 μg/ml, 90 minutes).
Source text: as §2, §3, §4, §5

Another experiment deals with TNF-α. The experiment is described as above. The settings on record: ileum, ex-vivo LPS challenge (10 μg/ml, 90 minutes).
Source text: as §2, §3, §4, §5

For another experiment, the system named is IL-6. The experiment is described as above.
Source text: as §2, §3, §4, §5

[2] abbreviates: ileum, ex-vivo LPS challenge (10 μg/ml, 90 minutes).

On to laminarin, for which the Lactobacilli populations result in the experiment with Lactobacilli was “no effect”. Further, in the experiment with Enterobacteriaceae (colon, LAM from Laminaria digitata, 300 and 600 ppm), the Enterobacteriaceae entry is given as “decrease”. Also, the Enterobacteriaceae populations result with Enterobacteriaceae (ileum, LAM 0-600 ppm) is given as “no effect”. For the same substance, the Bifidobacteria populations entry with Bifidobacteria is “no effect”. Also, the “digesta pH” value in [1] (any intestinal region) is on record as “no significant alteration”. Moreover, the “total VFAs” value in experiment [1] (caecum) is reported as “significant increase”; in experiment [1] (ileum or colon) it was “no significant effects”. The IFN-γ gene expression result in the experiment on IFN-γ is listed as “no effect”. Moreover, the IL-17 gene expression result in the experiment on IL-17 is reported as “no effect”. Moreover, the IL-8 gene expression result is given as “linear increase” with IL-8 (colon, LPS-challenged tissue, increasing LAM) and “no effect” with IL-8 (setting [2]). Besides, the IL-10 gene expression entry in the experiment on IL-10 is “no effect”. In addition, the IL-1α gene expression result in the experiment on IL-1α was “no effect”. Besides, in the experiment with TNF-α, the TNF-α gene expression entry is recorded as “no effect”. Besides, in the experiment with IL-6 (colon, LPS-challenged tissue, LAM 300 ppm), the IL-6 expression entry is “increase”. Moreover, the IL-6 gene expression result in the experiment with IL-6 (setting [2]) is recorded as “no effect”.

The record behind these values is patent publication US9241951B2, “Of gastrointestinal health, immunity and performance by dietary intervention” (BIOATLANTIS LTD, priority 2009, dated 2016).
